Data from patent publication US10815226B2, “Heteroaryl compounds as inhibitors of necrosis, composition and application thereof” (ACCRO BIOSCIENCE INC., priority 2016, dated 2020).

tested on: HT29 cells; assay: HT29 cell necroptosis assay (TNF-α/Smac mimetic/z-VAD induced necrosis, viability); type: cell-based, human; settings: 10 μM test compound pretreated one hour, TNF-α (40 ng/mL), Smacmimetic (100 nM), z-VAD (20 μM) for 48 hours
Procedure: Biological in Vitro HT29 Cell Assay.
The efficacies of RIP1 inhibitors were tested in vitro using human colon cancer TH29 cells in a necroptosis assay. For the assay, Cells were added to 96-well plates and then 10 μM of the test compound was pretreated for one hour. Then the cells were treated with TNF-α (40 ng/mL), Smacmimetic (100 nM) and z-VAD (20 μM) for 48 hours, and the viability was quantified. DMSO pretreatment group was negative control, Nec-1 pretreatment group was positive control.

Row | Compound | HT29 Inhibition (10 μM)
1 | CC(=O)Nc1nc2ccc(-c3cnc(Cl)c(NC(=O)c4ccccn4)c3)cc2s1 [Compound A2] | 8%
2 | CC(C)(C)OC(=O)NCCCNc1nc2ccc(-c3cnc(Cl)c(NC(=O)c4cccc(F)c4)c3)cc2s1 [Compound A6] | 5%
3 | NCCCNc1nc2ccc(-c3cnc(Cl)c(NC(=O)c4cccc(F)c4)c3)cc2s1 [Compound A7] | 8%
4 | CC(=O)Nc1nc2ccc(-c3cnc(CCCNC(=O)CCCCCNC(=O)CCCC[C@H]4SC[C@H]5NC(=O)N[C@H]54)c(NC(=O)c4cccc(F)c4)c3)cc2s1 [Compound A8] | 10%
5 | O=C(CCCC[C@@H]1SC[C@@H]2NC(=O)N[C@@H]21)NCCCCCC(=O)NCCCNc1nc2ccc(-c3cnc(Cl)c(NC(=O)c4cccc(F)c4)c3)cc2s1 [Compound A9] | 8%
6 | O=C(Nc1cc(-c2ccc3nncn3c2)cnc1Cl)c1cccc(F)c1 [Compound A10] | 1%
7 | O=C(Nc1cc(-c2ccc3ncsc3c2)cnc1Cl)c1cccc(F)c1 [Compound A11] | 8%
8 | CC(=O)Nc1nc2ccc(-c3cncc(NC(=O)Cc4cccc(F)c4)c3)cc2s1 [Compound A17] | 45%
9 | Cc1ncc(-c2ccc3nc(NC(=O)CCCCCNC(=O)CCCCCNC(=O)CCCC[C@@H]4SC[C@@H]5NC(=O)N[C@@H]54)sc3c2)cc1NC(=O)Cc1ccccc1 [Compound A32] | 21%
10 | CC(=O)Nc1nc2ccc(-c3cncc(NC(=O)Cc4ccccc4)n3)cc2s1 [Compound A33] | 1%
11 | CC(=O)Nc1nc2ccc(-c3cncc(NC(=O)Cc4ccccc4Cl)n3)cc2s1 [Compound A34] | 1%
12 | CC(=O)Nc1nc2ccc(-c3cccc(NC(=O)Cc4ccccc4Cl)n3)cc2s1 [Compound A35] | 1%
13 | CC(=O)Nc1nc2ccc(-c3cnc(C)c(NC(=O)CN4CCOCC4)c3)cc2s1 [Compound A38] | 33%
14 | CC(=O)Nc1nc2ccc(-c3cnc(C)c(NC(=O)CN4CCC(O)CC4)c3)cc2s1 [Compound A39] | 9%
15 | CC(=O)Nc1nc2ccc(-c3cnc(C)c(NC(=O)CN4CCCC4)c3)cc2s1 [Compound A41] | 14%
16 | CC(=O)Nc1nc2ccc(-c3cnc(C)c(NC(=O)CC4CC4)c3)cc2s1 [Compound A42, N-(5-(2-acetamidobenzo[d]thiazol-6-yl)-2-methylpyridin-3-yl)-2-cyclopropylacetamide] | 22%
17 | CCOC(=O)Nc1cc(-c2ccc3nc(NC(C)=O)sc3c2)cnc1C [Compound A52] | 10%
18 | CC(=O)Nc1nc2ncc(-c3cnc(C)c(NC(=O)OC4CCCCC4)c3)cc2s1 [Compound A63] | 9%
19 | CC(=O)Nc1nc2ccc(-c3cnc(C)c(NC(=O)OCc4ccccc4)c3)cc2s1 [Compound A74] | 8%
20 | CC(=O)Nc1nc2ccc(-c3ccnc(NC(=O)OC4CCCCC4)c3)cc2s1 [Compound A75] | 6%
21 | CC(=O)Nc1nc2ccc(-c3cc(NC(=O)OC4CCCCC4)ncn3)cc2s1 [Compound A76] | 5%
22 | CC(=O)Nc1nc2ccc(-c3cnc(C)c(NC(=O)OC4CCC5(CC4)OCCO5)c3)cc2s1 [Compound A77] | 60%
23 | CC(=O)Nc1nc2ccc(-c3cnc(C)c(NC(=O)O[C@H]4CC[C@H](O)CC4)c3)cc2s1 [Compound A79] | 35%
24 | CC(=O)Nc1nc2ccc(-c3cnc(C)c(NC(=O)Oc4ccccc4)c3)cc2s1 [Compound A82] | 7%
25 | Cc1ncc(-c2ccc3nc(NS(C)(=O)=O)sc3c2)cc1NC(=O)OC1CCCCC1 [Compound A85] | 7%
26 | Cc1ncc(-c2ccc3nc(NCC#N)sc3c2)cc1NC(=O)OC1CCCCC1 [Compound A91] | 40%
27 | CC(=O)Nc1nc2ccc(-c3cnc(C)c(NC(=O)OC4COC4)c3)cc2s1 [Compound A93] | 8%
